Source: patent US20220054559A1, “COMPOSITIONS AND METHODS FOR ENHANCING EXERCISE ENDURANCE” (PRESIDENT AND FELLOWS OF HARVARD COLLEGE, priority 2019, published 2022)
Entries after “also recorded” stand apart in the source; their conditions may differ.

Tests used:
Format in all cases: in vivo, mouse
[1] = 13C3-lactate flux tracing after tail-vein injection (LC-MS)
Experimental: It was next determined whether systemic lactate is capable of crossing the epithelial barrier into the gut lumen. […] At sacrifice, serum and plasma were immediately collected following cardiac puncture, and intestinal luminal contents were collected by removing the colon and cecum from the mice and gently sampling the inner surface of the tissue.
20% w/w ^13C3 sodium lactate (Cambridge Isotope Laboratories™) was diluted with PBS to a concentration of 400 mM in PBS. […] […] […] Whole blood was divided into two samples to obtain both serum and plasma, which was flash frozen in liquid nitrogen and stored at −80° C.
Immediately following cardiac puncture, mice were dissected to remove colon and cecum, and the contents were removed by squeezing with sterilized forceps into pre-weighed tubes. Contents were immediately flash frozen in liquid nitrogen. […]
Samples were analyzed for lactate and propionate by a Metabolomics Platform. LC-MS metabolomics were performed as previously described. 23 LC-MS traces were identified and integrated to quantify presence of ^13C0- and ^13C3-lactate isotopes.

[2] = system: inflammatory cytokines; test: Serum inflammatory cytokines after treadmill run, intrarectal propionate; conditions: serum taken 40 minutes after treadmill running, intrarectal propionate versus vehicle
Experimental: (§1) Treadmilling followed the same protocol as above. Mice were fasted 7 hours prior to exercise, to normalize metabolic profiles. 30 minutes prior to exercise, mice were treated with 200 μL of either PBS vehicle alone (n=8) or 150 mM sodium propionate in PBS (n=8) using a flexible gavage needle to introduce 200 μL of solution into the colon. Mice were run to exhaustion as above. This protocol was repeated for 3 consecutive days. On the first day of treatment, serum was collected 40 minutes post-exhaustion via tail-vein bleed and measured using the Ciraplex™ multiplex mouse cytokine assay (Aushon BioSystems™)

[3] = system: mice; test: Colorectal propionate instillation, treadmill run to exhaustion; conditions: 200 μL 150 mM sodium propionate in PBS into the colon 30 minutes prior to exercise, n=8, P=0.03
Experimental: as §1

[4] = 100 μL of 400 mM intravenously via tail vein, sacrifice 12 minutes after injection, LC-MS

earliest time at which serum lactate levels returned to baseline after tail-vein injection ([1]; tail-vein injection) [min]	Structure (SMILES)	13C3-labelled lactate detected in tissues [1, 4]	13C3-labelled propionate detected in tissues [1, 4]	serum inflammatory cytokine levels [2]	treadmill runtime versus pH-matched placebo vehicle [3]
12	[13CH3][13CH](O)[13C](=O)[O-].[Na+] (centres unmarked) [^13C3 sodium lactate]	present in both the serum and plasma as well as in the lumen of the colons and ceca	No ^13C3-labelled propionate was detected in these tissues	–	–
–	CCC(=O)[O-].[Na+] [propionate, sodium propionate]	–	–	no significant differences in cytokine levels were found	increased treadmill runtime; also recorded: improves maximum run time
